From patent publication US20060247156A1, “Use of neuropeptides for ligament, cartilage, and bone healing” (priority 2004, published 2006) come the findings set out here.

This test deals with ruptured MCL of a surgical sympathectomy (SS) rat. The test is described as follows: Local neuropeptide delivery to ruptured MCL of surgical sympathectomy (SS) rats: mechanical testing, histomorphology. In kind it is in vivo. The following applies: for failure force / ultimate stress / mechanical strength of healing MCL (in words): two weeks of healing; for mechanical strength of healing MCL (in words): local delivery. From the text: Surgical Procedure: Thirteen female Wistar rats (306 g to 339 g) were divided into two groups: surgical sympathectomy (SS) or sham control. All rats were anesthetized with isofluorane as described in Example 1. A transperitoneal approach was used. The lower abdomen was shaved and prepared for surgery. A skin incision approximately 25 mm long was made. Fascia and abdominal muscle were incised. Abdominal organs were displaced. With the aid of a dissecting microscope, fascia surrounding the deep muscle tissue was separated (with minimal disruption to the muscle tissue) to expose the post-ganglionic sympathetic nerves. The L1-4 nerves were isolated and transected (with removal of a 5 mm segment of the nerves) in the surgical sympathectomy group only. In both groups, the deep muscle tissue was returned to its initial position and abdominal organs were replaced. Abdominal muscles and skin were closed in two layers with a 3-0 or 4-0 continuous dexon suture. Rats from each group (n=4 SS; n=3 controls) then underwent a complete surgical rupture of the MCL to one knee. The contra-lateral knee underwent sham surgery. […] Two weeks post-surgery, rats were sacrificed using an overdose of pentobarbitone (150 mg/kg).
Local delivery of NPs and NP inhibitors is important to identify the specific roles of individual NPs on healing tissues. An animal model for the local delivery of NPs has been developed and is presented in this Example. Briefly, NP infused mini-osmotic pumps were implanted subcutaneously into the back of rats. A small catheter running from the pump to an intramuscular space above the MCL was secured to the rat.
To test whether autonomic NPs improve healing in SS-ruptured MCLs, three female Wistar rats (193 g to 204 g) were given VIP locally to the MCL. Vasoactive intestinal peptide (75 pg/μl) was infused into a mini-osmotic pump and was delivered to a ruptured MCL of a surgical sympathectomy (SS) rat (see surgical procedure above). Within minutes of surgical intervention, all rats recovered and had normal movement and behavior (grooming, feeding, etc.). […] The results are presented graphically in FIG. 6.
Animal Model and Surgery: Thirty-seven female Wistar rats (199-298 g) were divided into five groups. […] Rats that were designated to receive SP or CGRP underwent bilateral femoral nerve transection (see previous examples). Rats that were designated to receive NPY, VIP, or a combination of NPY and VIP underwent bilateral surgical sympathectomy. Following surgical nerve transection, each rat also underwent bilateral MCL rupture. Neuropeptides were then delivered ruptured MCLs unilaterally. Neuropeptide infused mini-osmotic pumps (Alzet Corp.) were implanted subcutaneously into the back of each rat. A small catheter running from the pump was run to an intramuscular space above the MCL and was secured. To ensure that neuropeptides are delivered directly to the MCL, rhodamine labeled SP was delivered via a catheter to the MCL (n=2 rats).
Within minutes of surgical intervention, all rats recovered and had normal movement and behavior (grooming, feeding, etc.). To test whether autonomic NPs improve healing in SS ruptured MCLs, seven rats were given VIP, seven rats were given NPY, and seven rats were given a combination of VIP and NPY. […]
Mechanical Testing: Mechanical testing was performed as described in the preceding examples. Briefly, animal hind limbs from all groups (n=4 for all groups) were disarticulated at the hip joint and stored at −80° C. until testing. On the day of testing, MCLs including intact femoral and tibial bone sections were excised for ex vivo testing. Ligament thickness and width was measured optically, and MCL area was estimated with elliptical geometry. For strain measurements, optical markers were placed onto the ligament tissue near the insertion sites. […]

Setting [1] is: Example 3: VIP 75 pg/μl via mini-osmotic pump to ruptured MCL of SS rat.
The mark [2] stands for this setting: Example 6: SS rats, bilateral MCL rupture, mini-osmotic pump (NPY 65 pg/100 μl; VIP 100 pg/100 μl; or both).

“Also recorded” adds a separate entry of the source.

In the case of vasoactive intestinal peptide [VIP], the failure force came to 44.23 N under setting [1] and 44.2±3.1 N under setting [2]. For the same substance, the ultimate stress under setting [1] is 29.63 MPa and the ultimate stress under setting [2] is recorded as 29.6±10.0 MPa. The “histomorphology (H&E) of healing MCL” value (SS rats, VIP or NPY, two weeks) was “more aligned”. In addition, the “mechanical strength of healing MCL (in words)” value is listed as “greater than the strength of uninjured MCLs; also recorded: completely reversed the functional deficits” (SS rats) and “greater strength than intact, normally innervated MCLs” (SS rats, listed as Vasoactive intestinal peptide).
